According to patent US6407122B1, “Amino-benzothiazole derivatives” (Pharmacia & Upjohn S.p.A., priority 1997, dated 2002):
pEC50: −log10 of the molar value.

System: mixed cortical neuronal cultures
Assay: Neuroprotection against NMDA (500 μM) toxicity in mixed cortical neuronal cultures, Trypan Blue Dye Exclusion Test
Format: cell-based
Settings: Rattus norvegicus, Cortical neurone; cultured cortical neurons from foetal rats; 3 min preincubation, 20 min exposure to NMDA 500 μM, viability after 24 hours; mean of at least 3 different experiments; read-out: EC50 (neuroprotective effect)
Procedure: The efficacy of the compounds of the invention as neuroprotective agents was evaluated in mixed cortical neuronal cultures, following the method reported below.
Mixed cortical neuronal cultures from foetal rats at 16 days of gestation were prepared as described by Choi (j. Neur. Sci. 7: 357-368, 1987). Briefly dissociated cells were plated on poly-L-lysine coated multiwell plates at density of 1*10^5 cells/cm^2 in MEM with Earle's salts supplemented with 21 mM D-glucose, 2 mM L-glutamine, 50 μg/ml Streptomicin, 50 IU Penicillin, 10% Foetal Calf Serum and 10% Horse Serum. Cultures were kept at 37° C., 5% CO2 and survived about 5 weeks. After 7 days in vitro, astrocites proliferation was inhibited by adding 10 μM Cytosine Arabinoside for 48 hours; the medium was subsequently substituted twice a week with a fresh medium without foetal call serum (Hatley, J. Pharm. and Exp. Ther. 250 (II);752-758, 1989).
Only nature cortical cultures, from 14 DIV on, were used for the study. Experiments were performed at 25° C. as follows: cells were washed once with a Locke's buffer, (128 mM NaCl, […], 1.2 mM Na2HPO4, 2.7 mM CaCl2, 20 mM Hepes and 10 mM D-glucose) pH=7.4, then preincubated with the test compounds for 3 min. followed by a 20 min. exposure to N-methyl-D-aspartate (NMDA) (500 μM).
The incubation was stopped by removing Locke's buffer and substituting the conditioned medium. […]

| Structure (SMILES) | pEC50 |
| --- | --- |
| Nc1nc2ccc(CCN3CCC(Cc4ccccc4)CC3)cc2s1 [Example 15, 1-(2-Amino-benzothiazol-6-yl)-2-(4-benzyl-piperidin-1-yl)-ethane] | 6.19 |
| OC(CN1CCC(Cc2ccc(F)cc2)CC1)c1ccc(Cl)cc1 (centres unmarked) [Eliprodil] | 5.65 |
